In US20230021483A1, “[…] […] METHOD AND CLASSIFICATION OF PHARMACEUTICAL COMPONENTS BY USING TRANSCRIPTOMES” (National Institutes of Biomedical Innovation, Health and …, priority 2016, published 2023):
“And” between values parts separate entries of the source, which are not always exact repeats. Equal values may be shown once.

System: preferentially upregulated genes in LV, SP, LN
Assay: Z-score-based differential gene expression analysis (adjuvant group- or adjuvant-associated genes, 40 module mapping, TargetMine annotation)
Type: in vivo, C57BL/6 mice
Method in brief: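 Per-sample fold-change values converted to gene-wise z-scores within each organ's data set, then triplicate z-scores summed per adjuvant. Genes with summed score >3 taken as preferentially expressed; gene groups defined by combined per-adjuvant z-score thresholds (z>1 to z>3) specific to each organ.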

[1] = ID, LN, samples x1-x3, Module#(LN) 40
[2] = liver (LV), gene group G1, module 20, individual mice x1-x3, route ID/IP/IN

Substance: D35: A class CpG ODN (5′-GGTGCATCGATGCAGGGGGG-3′), TLR9 ligand (DNA GGTGCATCGATGCAGGGGGG; chemistry not given here)
- z sum, 1444615_x_at Runx1t1 (ID, LN, Module#(LN) 1): 3.519
- z sum, 1420894_at Tgfbr1 (ID, LN, Module#(LN) 3): 3.333
- z sum, 1460069_at Smc6 (ID, LN, Module#(LN) 7): 3.274
- z sum, 1440371_at --- (ID, LN, Module#(LN) 8): 3.29
- z sum, 1456346_at --- (ID, LN, Module#(LN) 9): 3.455
- z sum, 1425105_at Rbp3 (ID, LN, Module#(LN) 10): 3.333
- z sum, 1455796_x_at Olfm1 (ID, LN, Module#(LN) 11): 3.262
- z sum, 1443302_at --- (ID, LN, Module#(LN) 12): 3.407
- z sum, 1442518_at C030044O21Rik (ID, LN, Module#(LN) 14): 3.546
- z sum, 1419486_at Foxc1 (ID, LN, Module#(LN) 19): 3.344
- z sum, 1441344_at Erlin1 (ID, LN, Module#(LN) 21): 3.171
- z sum, 1423611_at Alpl (ID, LN, Module#(LN) 24): 3.194
- z sum, 1448179_at Usmg5 (ID, LN, Module#(LN) 24): 3.461
- z sum, 1458457_at --- (ID, LN, Module#(LN) 26): 3.147
- z sum, 1450377_at Thbs1 (ID, LN, Module#(LN) 28): 3.002
- z sum, 1443853_x_at Sfmbt1 (ID, LN, Module#(LN) 32): 3.51
- z sum, 1443392_at Trpv1 (ID, LN, Module#(LN) 33): 3.184
- z sum, 1440475_at AW011738 (ID, LN, Module#(LN) 36): 3.038
- z sum, 1416380_at Mov10 (ID, LN, Module#(LN) 37): 3.277
- z sum, 1421008_at Rsad2 (ID, LN, Module#(LN) 37): 3.221
- z sum, 1421009_at Rsad2 (ID, LN, Module#(LN) 37): 3.209
- z sum, 1424339_at Oasl1 (ID, LN, Module#(LN) 37): 3.198
- z sum, 1426013_s_at Plekha4 (ID, LN, Module#(LN) 37): 3.228
- z sum, 1436058_at Rsad2 (ID, LN, Module#(LN) 37): 3.281
- z sum, 1436472_at Slfn9 (ID, LN, Module#(LN) 37): 3.595
- z sum, 1447241_at --- (ID, LN, Module#(LN) 37): 3.033
- z sum, 1416039_x_at Cyr61 (ID, LN, Module#(LN) 39): 3.015
- z sum, 1418191_at Usp18 (ID, LN, Module#(LN) 40): 3.035
- z sum, 1418293_at Ifit2 (ID, LN, Module#(LN) 40): 3.02
- z sum, 1418580_at Rtp4 (ID, LN, Module#(LN) 40): 3.028
- z sum, 1419603_at Ifi204 (ID, LN, Module#(LN) 40): 3.659
- z sum, 1421911_at Stat2 (ID, LN, Module#(LN) 40): 3.137
- z sum, 1422006_at Eif2ak2 (ID, LN, Module#(LN) 40): 3.279
- z sum, 1422141_s_at Csprs///Gm15433///Gm2666///Gm7609///LOC100041903///LOC100503923 (ID, LN, Module#(LN) 40): 3.074
- z sum, 1423555_a_at Ifi44 (ID, LN, Module#(LN) 40): 3.551
- z sum, 1424444_a_at 1600014C10Rik (ID, LN, Module#(LN) 40): 3.108
- z sum, 1424607_a_at Gm4354 (ID, LN, Module#(LN) 40): 3.422
- z sum, 1424609_a_at Cwc22///Gm4354///Xdh (ID, LN, Module#(LN) 40): 3.429
- z sum, 1431095_a_at Herc6 (ID, LN, Module#(LN) 40): 3.065
- z sum, 1432417_a_at Tspan2 (ID, LN, Module#(LN) 40): 3.906
- z sum, 1439886_at --- (ID, LN, Module#(LN) 40): 3.151
- z sum, 1450403_at Stat2 (ID, LN, Module#(LN) 40): 3.389
- z sum, 1451777_at Ddx60 (ID, LN, Module#(LN) 40): 3.02
- z sum, 1452349_x_at Ifi205///Mnda (ID, LN, Module#(LN) 40): 3.123
- z sum, 1453196_a_at Oasl2 (ID, LN, Module#(LN) 40): 3.123
- z sum, 1453299_a_at Pnp///Pnp2 (ID, LN, Module#(LN) 40): 3.12
- z sum, 1453757_at Herc6 (ID, LN, Module#(LN) 40): 3.183
- z sum, 1456164_at AW011738 (ID, LN, Module#(LN) 40): 3.347
- z sum, 1457035_at Al607873 (ID, LN, Module#(LN) 40): 3.377
- z-score of fold change, 1460069_at Smc6 (ID, LN, samples x1-x3, Module#(LN) 7): 0.716 and 1.173 and 1.385
- z-score of fold change, 1442518_at C030044O21Rik (ID, LN, samples x1-x3, Module#(LN) 14): 0.953 and 1.161 and 1.432
- z-score of fold change, 1423611_at Alpl (ID, LN, samples x1-x3, Module#(LN) 24): 0.707 and 1.244
- z-score of fold change, 1436472_at Slfn9 (ID, LN, samples x1-x3, Module#(LN) 37): 1.143 and 1.047 and 1.405
- z-score of fold change, 1419603_at Ifi204 [1]: 1.185 and 1.269 and 1.205
- z-score of fold change, 1422006_at Eif2ak2 [1]: 1.174 and 1.037 and 1.068
- z-score of fold change, 1424607_a_at Gm4354 [1]: 1.005 and 1.314 and 1.103
- z-score of fold change, 1424609_a_at Cwc22///Gm4354///Xdh [1]: 1.178 and 1.294 and 0.958
- z-score of fold change, 1432417_a_at Tspan2 [1]: 1.133 and 1.404 and 1.369
- z-score of fold change, 1451777_at Ddx60 [1]: 0.83 and 1.215 and 0.975
- z-score of fold change, 1457035_at Al607873 [1]: 0.908 and 1.231 and 1.239
- interferon induction relative to adjuvants targeting the same receptor (LN, z-scores and 40 module mapping): relatively stronger interferon inducer than K3 or K3SPG
- Z score of gene expression, Adar (probe 1425405_a_at) [2]: −0.1 and −0.3 (2×)
- Z score of gene expression, Adar (probe 1434268_at) [2]: −0.3 (2×) and −0.4
- Z score of gene expression, Ddx58 (probe 1436562_at) [2]: −0.4 (2×) and −0.1
- Z score of gene expression, Ddx58 (probe 1456890_at) [2]: −0.3 (2×) and −0.4
- Z score of gene expression, Eif2ak2 (probe 1422005_at) [2]: −0.5 and −0.4 (2×)
- Z score of gene expression, G3bp2 (probe 1421323_a_at) [2]: −0.5 and −0.4 (2×)
- Z score of gene expression, Gm9706///Isg15 (probe 1431591_s_at) [2]: −0.5
- Z score of gene expression, H2-T10///H2-T22///H2-T9 (probe 1449875_s_at) [2]: −0.4 and −0.3 and −0.2
- Z score of gene expression, Ifih1 (probe 1426276_at) [2]: −0.5 (2×) and −0.3
- Z score of gene expression, Ifit1 (probe 1449025_at) [2]: −0.5
- Z score of gene expression, Ifit1 (probe 1450783_at) [2]: −0.5 and −0.4 (2×)
- Z score of gene expression, Irf7 (probe 1417244_a_at) [2]: −0.3 (2×) and −0.2
- Z score of gene expression, Irgm1 (probe 1418825_at) [2]: −0.5 (2×) and −0.3
- Z score of gene expression, Mndal (probe 1426906_at) [2]: −0.5 and −0.4 and −0.3
- Z score of gene expression, Pml (probe 1448757_at) [2]: −0.7 and −0.4 and −0.3
- Z score of gene expression, Pml (probe 1456103_at) [2]: −0.4 and −0.3 (2×)
- Z score of gene expression, Rnf213 (probe 1455500_at) [2]: −0.4
- Z score of gene expression, Rsad2 (probe 1436058_at) [2]: −0.5
- Z score of gene expression, Shisa5 (probe 1423986_a_at) [2]: −0.5 and −0.6 and −0
- Z score of gene expression, Shisa5 (probe 1437503_a_at) [2]: −0.4 (2×) and 0.15
- Z score of gene expression, Stat1 (probe 1450033_a_at) [2]: −0.5 (2×) and −0.4
- Z score of gene expression, Stat1 (probe 1450034_at) [2]: −0.5
- Z score of gene expression, Tdrd7 (probe 1426716_at) [2]: −0.4 (2×) and −0.1
- Z score of gene expression, Tor1aip2 (probe 1418115_s_at) [2]: −0.4 and −0.6 and −0.1
- Z score of gene expression, Tor1aip2 (probe 1418116_at) [2]: −0.4 and −0.5 and −0.2
- Z score of gene expression, Tor1aip2 (probe 1435526_at) [2]: −0.4 (2×) and −0.5
- Z score of gene expression, Trim12a (probe 1437432_a_at) [2]: −0.4 (2×) and −0.5
- Z score of gene expression, Uba7 (probe 1426970_a_at) [2]: −0.8 and −0.6 and −0.5
